Source: publication PMC6468747 (Cancers, 2019)
Like-named read-outs stand apart in the source and are kept apart here.

Legend:
[1] = target: T1, Mnk1 (Homo sapiens, UniProt Q9BUB5); test: Streptavidin-agarose pull-down with biotinylated VNLG-152R; format: binding; conditions: 50 µg
T1 construct: incubated with recombinant full length Mnk1 proteins or cell lysates overnight at 4 °C; GST
Protocol: The streptavidin–agarose pull-down assay was performed as described previously. Biotin-VNLG-152R (50 µg) and biotin (50 µg; negative control) were preincubated with streptavidin agarose beads (Invitrogen, Waltham, MA, USA) overnight at 4 °C. The biotin-VNLG-152R-conjugated beads were washed three times with cold PBS and then incubated with recombinant full length Mnk1 proteins or cell lysates overnight at 4 °C. The bead-bound proteins were incubated and separated on a 10% SDS-PAGE and detected by western blot analysis for Mnk1.

[2] = tested on: MDA-MB-231 xenografts; test: MDA-MB-231 xenograft, racemate vs enantiomers, IP vs PO; format: in vivo, nude mice; conditions: 20 mg/kg per day PO, 36 days
Protocol: The second experiment designed to compare heal-to-head IP versus oral dosing (PO) and the efficacy of racemic VNLG-152 versus its two enantiomers was like that described above but consisted of eight groups. When the tumor volumes had reached about 100 mm^3, the mice were randomly divided into 8 groups of 5 mice each. The two control groups received vehicle (IP or OP) and the other six groups received VNLG-152R (20 mg/kg, IP or PO, once daily), VNLG-152E1 (20 mg/kg, IP or PO, once daily), and VNLG-152E2 (20 mg/kg, IP or PO, once daily) five days/week. These treatments continued for 36 days and the tumors were measured and processed as described above.

[3] = tested on: Br-001 xenograft tumors; test: Patient-derived TNBC xenograft (PDX), PO, racemate vs E1; format: in vivo, NSG mice; conditions: 20 mg/kg PO
Protocol: The second PDX tumor model experiment was conducted to assess the efficacy of VNLG-152R versus VNLG-152E1 following PO administration. When the tumor volumes had reached about 100 mm^3, the mice were randomly divided into three groups of five mice each. The control group received vehicle (PO) and the other two groups received VNLG-152R (20 mg/kg, PO, once daily), and VNLG-152E1 (20 mg/kg, PO, once daily) five days/week. These treatments continued for 15 days and the tumors were measured and processed as described above.

[4] = tested on: panel of 6 human TNBC cell lines; test: MTT cell growth assay, summary over the panel; format: cell-based; conditions: 7 days
Protocol: Figure 3 In vitro characterization, pharmacokinetics and toxicity profile of VNLG-152R and its two enantiomers. (A) HPLC chromatograms racemic VNLG-152R (left panel) and the resolved enantiomers VNLG-152E1 and VNLG-152E2 (right panel). The conditions of HPLC procedure are presented in Supplementary Materials. (B) Table summarizing GI50 values (µM) each cell line treated with VNLG-152R and its enantiomers. TNBC cell subtypes were treated with listed compound (0.1 nmol/L–100 µmol/L) for 7 days and the GI50 values for the anti-proliferative effects of the compounds were determined from dose response curves (by a nonlinear regression analysis using Graph Pad Prism). Data represents the results from six independent experiments for each cell line. (C) Plasma concentration versus time profile after intravenous (IV, 2 mg/kg each, top panel) or oral (PO, 20 mg/kg each, bottom panel) of VNLG-152R (red), VNLG-152E1 (purple) and VNLG-152E2 (blue) to female CD1 mice. Values represent the mean plasma concentrations from three mice per time point. (D) Table of the pharmacokinetic parameters of various compounds after IV and PO dosing. AUC = area under the curve, T1/2 = elimination half-life, Cmax = maximum plasma concentration, F (%) = oral bioavailability. (E) Effects of VNLG-152R, VNLG-152E1 and VNLG-152E2 on body weight and clinical observations at chronic dose termination of study. Three different doses, i.e., 10, 25, and 50 mg/kg/day (formulated in 40% β-cyclodextrin in saline) of each compound were administered daily by oral gavage for 14 days. Each group consisted of three mice. Loss in body weight, a clinical sign of toxicity was observed during the 14 days of dosing and the maximum tolerated dose (MTD) was estimated following established procedures. Changes in body weight were scored on a scale of 0–4 as follows as described under methods. […]

[5] = 14-day oral toxicity / MTD study; parameters: species or system female athymic nude mice; conditions: mouse, in vivo, po
Protocol: Three different doses, i.e., 10, 25, and 50 mg/kg/day (formulated in 40% β-cyclodextrin in saline) of each compound were administered daily by oral gavage for 14 days. Each group consisted of 3 mice. Their body weight kinetics (loss in body weight, a clinical sign of toxicity) was observed during the 14 days of dosing following established procedures. Changes in body weight were scored on a scale of 0–4 as follows: (1) Weight loss: (10 g = 4, 7–9 g = 3, 4–6 g = 2, 1–3 g = 1; severe = 3, moderate = 2, slight = 1, none = 0).

[6] = Plasma pharmacokinetics after single IV and PO dosing; format: in vivo, female CD1 mice; conditions: mouse, in vivo
Protocol: 5. In vivo Pharmacokinetics (PK) Determination: These studies were Performed by Charles River Laboratories (CRL), Discovery Services, 251 Ballardvale Street, Wilmington, MA 01887, USA.
The PK studies were performed according to the guidelines and approval of CRL Institutional Animal Care and Use Committee (IACUC) under IACUC approval no: P04172013.
A total of sixty‐four naïve female CD‐1 mice (including 6 spare animals) were received from Charles River Laboratories, Kingston, NY. Following an acclimation period, the animals were assigned to the study based on acceptable health as determined by a staff veterinarian. For dosing, animals were placed into six groups as detailed in the study design table below. All animals were fasted overnight prior to dosing and food was returned after the 4‐h post‐dose blood collections.
Each animal in Groups 1, 3 and 5 received a single administration of prepared test article by intravenous tail administration at a target dose level of 2 mg/kg and dose volume of 10 mL/kg. Each animal in Groups 2, 4 and 6 received a single administration of prepared test article by oral gavage at a target dose level of 20 mg/kg and at a dose volume of 10 mL/kg. Dosing was performed on August 13, 2015 as detailed in the study protocol and was completed without incident. Dose administration […]
Following dosing and at each sample collection time
Group Mices Test Compound Level Conc. Volume Dose Vehicle Route […]
Interim blood samples were collected in a leapfrog design from each animal by puncture of a submandibular vein and a terminal blood sample was collected from each animal by intracardiac puncture following euthanasia with CO2 as outlined in the sample collection table below.
All blood samples were transferred into tubes containing K2EDTA anticoagulant and placed on wet ice immediately after collection until centrifuged at 2200 × g for 10 min at […] to isolate plasma.
The resulting plasma was transferred to individual polypropylene tubes in a 96‐well plate format and immediately placed on dry ice until storage at nominally […] before transfer to the Test Facility’s bioanalysis group for concentration and HPLC analysis. Individual blood collection times are […]
Table S4. Sample Collections.
Collection Information Whole Blood for Plasma Whole Blood for Plasma
Subgroup A (n = 3) 5 min & 1 h post‐dose 8 h post‐dose
Subgroup B (n = 3) 15 min & 4 h post‐dose 12 h post‐dose
Subgroup C (n = 3) 30 min & 6 h post‐dose 24 h post‐dose
Subgroup D (n = 2) Not applicable 2 h post‐dose
Subgroup A (n = 3) 15 min & 2 h post‐dose 8 h post‐dose
Subgroup B (n = 3) 30 min & 4 h post‐dose 12 h post‐dose
Subgroup C (n = 3) 1 hr & 6 h post‐dose 24 h post‐dose
Collection conditions K2EDTA K2EDTA
Collection route Submandibular Intracardiac puncture
Volume/Time point 100 μL Maximum volume
The plasma samples for Groups 1‐6, Subgroups A‐C were analyzed for test article concentration using a Research Grade LC MS/MS Assay (RGA‐Level 1). The bioanalytical report, including plasma […]
Pharmacokinetic parameters were estimated from the plasma concentration‐time data using standard non‐compartmental methods and utilizing suitable analysis software (Watson 7.2 Bioanalytical LIMS, Thermo Electron Corp). Parameters were estimated using nominal sampling times relative to the start of each dose administration (within an acceptable tolerance limit).
Concentrations below the limit of quantification were excluded from the pharmacokinetic analysis.
The area under the plasma test item concentration versus time curve (AUC) was calculated using the linear‐log‐linear trapezoidal method. When practical, the terminal elimination phase of each concentration versus time curve was identified using at least the final three observed concentration values. The slope of the terminal elimination phase was determined using log linear regression on the unweighted concentration data.
Parameter Description of Parameter […]

[7] = tested on: MDA-MB-231 cells; test: Multiplex Luminex supernatant cytokine analysis; format: cell-based, human; conditions: 72 h, cell supernatants
Protocol: Supernatants from the MDA-MB-231 (TNBC) cells in Fetal Bovine Serum (FBS) containing media were treated with various concentrations of VNLG-12R for 72 h, were collected, and various cytokines and growth factor concentrations (CLCX-1, IL-6, IL8 and TNF-α) were determined by Luminex multiplex assay kit (Millipore, Billerica, MA, USA) according to the manufacturer’s instructions. The expressions of secreted cytokines were read on Luminex 100 reader. The data was then analyzed using the BioPlex Software (BioRad, Hercules, CA, USA). The Luminex multiplex assays were conducted at the University of Maryland School of Medicine Cytokine Core Laboratory (Baltimore, MD, USA).

[8] = tested on: MDA-MB-231 cells; test: Head-to-head MTT antiproliferative assay, 6-day exposure; format: cell-based, human; conditions: Homo sapiens, MDA-MB-231, 144 h
Protocol: (§1) Figure 2 VNLG-152R inhibits mTORC1 signaling and the production of pro-inflammatory cytokines. (A) MDA-MB-231 and MDA-MB-468 cells were treated with the indicated concentrations of VNLG-152R for 72 h. Cell lysates were analyzed by immunoblotting with the indicated antibodies. (B) Head-to-head antiproliferative effects of VNLG-152R and eFT508 on MDA-MB-231 and MDA-MB-468 cells. The dose-response curves were generated from MTT assays after 6-day exposure to different concentrations of the compounds. Each point is a mean of replicates from three independent experiments. (C–E) MDA-MB-231 cell were treated with the indicated concentration of VNLG-152R or eFT508 for 72 h. Cell supernatants were collected, and the indicated cytokines were quantitated by Multiplex Luminex assay.
(§2) Cell growth inhibition assay was performed as described previously. For cell growth experiment, cells were treated with the VNLG-152R, VNLG-152E1 or VNLG-15E2 for 7 days. MTT assay was performed at the end of the experiment. Results represent the mean ± standard deviation of three independent experiments.

[9] = tested on: MDA-MB-468 cells; test: as above; format: cell-based, human; conditions: Homo sapiens, MDA-MB-468, 144 h
Protocol: as §1, §2

[10] = mean over 6 TNBC cell lines, read-out: average GI50
[11] = range over 6 TNBC cell lines, read-out: range of GI50

T1 sequence (Q9BUB5 whole entry): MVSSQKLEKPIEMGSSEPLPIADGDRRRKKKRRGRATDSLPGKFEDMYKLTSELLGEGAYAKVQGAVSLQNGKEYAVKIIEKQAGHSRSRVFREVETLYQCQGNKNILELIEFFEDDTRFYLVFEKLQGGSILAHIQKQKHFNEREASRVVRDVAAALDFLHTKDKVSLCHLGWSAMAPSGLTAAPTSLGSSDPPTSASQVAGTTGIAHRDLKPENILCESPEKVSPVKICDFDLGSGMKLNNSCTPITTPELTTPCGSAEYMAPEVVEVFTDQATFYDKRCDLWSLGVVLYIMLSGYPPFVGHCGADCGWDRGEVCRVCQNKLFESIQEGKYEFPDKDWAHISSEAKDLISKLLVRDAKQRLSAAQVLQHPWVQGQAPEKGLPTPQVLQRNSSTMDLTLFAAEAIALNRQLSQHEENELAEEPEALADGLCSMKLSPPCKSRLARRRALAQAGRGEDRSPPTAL

| Compound | Mnk1 captured in streptavidin pull-down ([1]; MDA-MB-231 cells) | Mnk1 captured in streptavidin pull-down ([1]; recombinant Mnk1 protein) | TGI [2] [%] | changes in body weights [3] | TGI ([3]; 5 days per week, 15 days) [%] | GI50 [4, 10] [µM] | GI50 [4, 11] [µM] | maximum tolerated dose (MTD) [5] [mg/kg] | F (%) oral bioavailability [6] [%] | AUC(0-inf) ([6]; iv, 2 mg/kg) [ng·h/mL] | T1/2 ([6]; iv, 2 mg/kg) [h] | AUC(0-inf) ([6]; po, 20 mg/kg) [ng·h/mL] | Cmax ([6]; po, 20 mg/kg) [ng/mL] | T1/2 ([6]; po, 20 mg/kg) [h] | secreted IL-6 and IL-8, TNFα and chemokine CXCL1 [7] | secretion of CXCL1 [7] | GI50 [8] [µM] | GI50 [9] [µM] |
| --- | --- | --- | --- | --- | --- | --- | --- | --- | --- | --- | --- | --- | --- | --- | --- | --- | --- | --- |
| CC1=C(/C=C/C(C)=C/C=C/C(C)=C/C(=O)N(CCOC(=O)CCCC[C@@H]2SC[C@@H]3NC(=O)N[C@@H]32)c2ccc(F)cc2)C(C)(C)CCC1n1ccnc1 (stereo partly drawn) [VNLG-152R-biotin] | direct binding of Mnk1 to VNLG-152R-biotin in MDA-MB-231 cells | substantial amounts of Mnk1 was found only in the VNLG-152R-biotin-treated sample | – | – | – | – | – | – | – | – | – | – | – | – | – | – | – | – |
| CC1=C(/C=C/C(C)=C/C=C/C(C)=C/C(=O)Nc2ccc(F)cc2)C(C)(C)CCC1n1ccnc1 (single isomer, unassigned) [VNLG-152E1] | – | – | 78 | No changes in body weights were observed | 79 | 2.3 | 0.98 to 4.79 | > 50 | 161.9 | 2100 | 1.78 | 34000 | 4880 | 4.49 | – | – | – | – |
| Cc1cc(Nc2cc(N)ncn2)c(=O)n2c1C(=O)NC21CCCCC1.Cl [eFT508, 6′-[(6-aminopyrimidin-4-yl)amino]-8′-methyl-2′Hspiro[cyclohexane-1,3′-imidazo-[1,5-a]pyridine]-1′,5′-dione hydrochloride (1:1), reference compound] | – | – | – | – | – | – | – | – | – | – | – | – | – | – | dose-dependent reduction | seem to stimulate secretion of CXCL1 | 7.07 | 52.5 |
| CC1=C(/C=C/C(C)=C/C=C/C(C)=C/C(=O)Nc2ccc(F)cc2)C(C)(C)CCC1n1ccnc1 (single isomer, unassigned) [VNLG-152E2] | – | – | – | – | – | 0.39 | 0.1 to 1.17 | > 50 | 72.8 | 1840 | 1.10 | 13400 | 3590 | 4.02 | – | – | – | – |
